{"source": "patent US11248018B2", "about": "“Process for preparation of nicotinamide riboside (NR) and cosmetic composition comprising (NR and a phosphate-binding agent” (YISSUM RESEARCH DEVELOPMENT COMPANY OF THE HEBREW …, priority 2016, dated 2022)", "format_in_all_cases": "physicochemical", "key": {"[1]": {"assay": "One-stage hydrolysis of NAD^+ with ZrCl4 and calcium L-ascorbate in water at 80° C. (Example 2), concentrations over time", "settings": "for Relative Concentration: Example 2, ZrCl4 + calcium L-ascorbate, 80° C.", "protocol": "NMR spectra were recorded with 400 MHz Bruker spectrometer. Reversed phase HPLC column of RP-18 type (Chromolith performance RP18e (100-4.6 mm) UM8 086/001, Merck KGaA) using deionized HPLC-grade solvents in the following composition: 1% acetonitrile, 99% water. Flow rate was 0.1 mL/min, detection performed with UV detector at 260 nm. Mass Spectrometry (MS), 6200 series TOF/6500 series Q-TOF B.05.01 (B5125.1).\nIn a 250-ml flask, a mixture of NAD^+ (0.33 gr), ZrCl4 (0.58 gr) and 1.80 gr of calcium L-ascorbate in 100 ml of deionized water was heated to 80° C. for 2 days. Over this time period, full conversion of the NAD^+ was observed by HPLC. Decomposition of the desired NR product was also observed under these conditions, but to a lower extent in comparison with the process of Example 1. HR-MS spectrum of the product is MW of 255.10. The extent of the decomposition of the desired NR was determined by comparing the abundance of the desired peak to the abundance of the internal standard."}, "[2]": {"assay": "Hydrolysis of NAD^+ with phosphate binding agent (calcium L-ascorbate) alone in water at 80° C. (Example 3), concentrations over time", "settings": "for Relative Concentration: Example 3, calcium L-ascorbate alone, 80° C.", "protocol": "In a 250-ml flask, a mixture of NAD^+ (0.34 gr) and 1.8 gr of calcium L-ascorbate in 100 ml of deionized water was heated to 80° C. for 4 days. The mixture was analyzed every 3 hours using HPLC and ^31P-NMR.\nThe rate of the tertiary hydrolysis (decomposition of the NR) is slower. Under these conditions, the concentration of the NR remains essentially stable (˜10% decline) over 24 hours (steady-state). The concentration was determined by comparing the abundance of the desired peak to the abundance of the internal standard MS and ^1H- and ^31P-NMR (intensity of the signal). After this time the concentration of the NR decreased and the product was no longer present."}, "[3]": {"assay": "Stability of commercial NR product under hydrolytic conditions in deionized water, followed by NMR", "protocol": "Additionally, to establish the stability of the commercial NR product (Niagen® purchased from ChromaDex) under hydrolytic conditions, it was dissolved in deionized water as described herein and the mixture was analyzed every 3 hours using ^1H- and ^31P-NMR."}}}
{"smiles": "NC(=O)C1=CN([C@@H]2O[C@H](COP(=O)(O)OP(=O)(O)OC[C@H]3O[C@@H](n4cnc5c(N)ncnc54)[C@H](O)[C@@H]3O)[C@@H](O)[C@H]2O)C=CC1", "note": "[NAD^+, β-nicotinamide adenine dinucleotide]", "values": [{"measurement": "Relative Concentration", "setting": "[1]; time 0 hours", "result": 1}, {"measurement": "Relative Concentration", "setting": "[1]; time 0.5 hours", "result": 0.66}, {"measurement": "Relative Concentration", "setting": "[1]; time 6 hours", "result": 0.32}, {"measurement": "Relative Concentration", "setting": "[1]; time 16 hours", "result": 0.05}, {"measurement": "Relative Concentration", "setting": "[1]; time 24 hours", "result": 0}, {"measurement": "Relative Concentration", "setting": "[2]; time 0 hours", "result": 1}, {"measurement": "Relative Concentration", "setting": "[2]; time 0.5 hours", "result": 0.86}, {"measurement": "Relative Concentration", "setting": "[2]; time 6 hours", "result": 0.62}, {"measurement": "Relative Concentration", "setting": "[2]; time 16 hours", "result": 0.55}, {"measurement": "Relative Concentration", "setting": "[2]; time 24 hours", "result": 0.38}, {"measurement": "Relative Concentration", "setting": "[2]; time 36 hours", "result": 0.22}, {"measurement": "Relative Concentration", "setting": "[2]; time 48 hours", "result": 0.2}]}
{"smiles": "NC(=O)c1ccc[n+]([C@@H]2O[C@H](CO)[C@@H](O)[C@H]2O)c1", "note": "[NR (Niagen ®), Nicotinamide riboside]", "values": [{"measurement": "NR peak at 6.15 ppm in 1H-NMR versus DMF internal standard", "setting": "[3]; after 24 hours", "result": "NR has degraded"}, {"measurement": "Relative Concentration", "setting": "[3]; time 0.5 hours", "result": 1}, {"measurement": "Relative Concentration", "setting": "[3]; time 3 hours", "result": 0.62}, {"measurement": "Relative Concentration", "setting": "[3]; time 6 hours", "result": 0.48}, {"measurement": "Relative Concentration", "setting": "[3]; time 24 hours", "result": 0.02}, {"measurement": "Relative Concentration", "setting": "[3]; time 48 hours", "result": 0}]}
{"smiles": "NC(=O)c1cccnc1", "note": "[Nicotinamide, nicotinamide]", "values": [{"measurement": "Relative Concentration", "setting": "[1]; time 0 hours", "result": 0}, {"measurement": "Relative Concentration", "setting": "[1]; time 0.5 hours", "result": 0.1}, {"measurement": "Relative Concentration", "setting": "[1]; time 6 hours", "result": 0.19}, {"measurement": "Relative Concentration", "setting": "[1]; time 16 hours", "result": 0.32}, {"measurement": "Relative Concentration", "setting": "[1]; time 24 hours", "result": 0.48}, {"measurement": "Relative Concentration", "setting": "[2]; time 0 hours", "result": 0}, {"measurement": "Relative Concentration", "setting": "[2]; time 0.5 hours", "result": 0.1}, {"measurement": "Relative Concentration", "setting": "[2]; time 6 hours", "result": 0.16}, {"measurement": "Relative Concentration", "setting": "[2]; time 16 hours", "result": 0.32}, {"measurement": "Relative Concentration", "setting": "[2]; time 24 hours", "result": 0.48}, {"measurement": "Relative Concentration", "setting": "[2]; time 36 hours", "result": 0.41}, {"measurement": "Relative Concentration", "setting": "[2]; time 48 hours", "result": 0.41}]}
{"smiles": "NC(=O)c1ccc[n+]([C@@H]2O[C@H](CO)[C@@H](O)[C@H]2O)c1", "note": "[NR, 1-(β-D-Ribofuranosyl)-nicotinamide]", "values": [{"measurement": "Relative Concentration", "setting": "[1]; time 0 hours", "result": 0}, {"measurement": "Relative Concentration", "setting": "[1]; time 0.5 hours", "result": 0.05}, {"measurement": "Relative Concentration", "setting": "[1]; time 6 hours", "result": 0.06}, {"measurement": "Relative Concentration", "setting": "[1]; time 16 hours", "result": 0.02}, {"measurement": "Relative Concentration", "setting": "[1]; time 24 hours", "result": 0}, {"measurement": "stability of the NR concentrations", "setting": "[1]; NR-containing aqueous solution, ZrCl4 with phosphate-binding agent added concurrently", "result": "about 6 hours"}, {"measurement": "Relative Concentration", "setting": "[2]; time 0 hours", "result": 0}, {"measurement": "Relative Concentration", "setting": "[2]; time 0.5 hours", "result": 0.06}, {"measurement": "Relative Concentration", "setting": "[2]; time 6 hours", "result": 0.11}, {"measurement": "Relative Concentration", "setting": "[2]; time 16 hours", "result": 0.09}, {"measurement": "Relative Concentration", "setting": "[2]; time 24 hours", "result": 0.08}, {"measurement": "Relative Concentration", "setting": "[2]; time 36 hours", "result": 0.01}, {"measurement": "Relative Concentration", "setting": "[2]; time 48 hours", "result": 0}, {"measurement": "decline of NR concentration", "setting": "[2]; over 24 hours (steady-state), Example 3", "result": "~10", "unit": "%"}, {"measurement": "time the concentration of the product remains stable (decline of no more than 10%)", "setting": "[2]; solution from degrading NAD^+ with phosphate-binding agent alone, absence of ZrCl4", "result": "at least 24 hours"}]}
